Experimental data taken from patent publication US12710366B2, “Dyes undergoing changes in color and fluorescence upon binding of organic oxo compounds” (Bundesrepublik Deutschland, vertreten durch den …, priority 2020, dated 2026).
Values joined by “and” are separate entries in the source; they are usually repeats but may differ in a detail not shown here. Identical values can stand only once. “Also recorded” adds a separate entry of the source.

Columns and labels:
[1] = Spectroscopic titration of compound 19 with ENOX-TBA in MeCN; assay type: binding
Protocol: (§1) Absorption spectra and spectrophotometric titrations were acquired with a Specord 210 Plus spectrometer (Analytik Jena), using dilute solutions with an absorbance of about 0.1 at the absorption maximum. The binding constants were assessed with BindFit v0.5 software. Fluorescence spectra and titrations were carried out on a FluoroMax 4 spectrofluorometer (Horiba Jobin-Yvon).
This example illustrates the titration of the thiourea-based compound 19 with the ammonium salt of the antibiotic enoxacin (ENOX-TBA) in MeCN. […] The bathochromic shift of the absorption band upon binding can be rationalized considering that the donor-acceptor interaction between the thiourea and benzoxadiazole is reinforced with the charge donation of the electron-rich carboxylate anion to the thiourea through such supramolecular interactions. […] The estimated binding constant for this interaction was calculated to be K19/ENOX-TBA=[…] in MeCN.

[2] = UV/vis absorption and emission spectra (Stokes shift); assay type: physicochemical
Protocol: as §1
Normalized UV/vis absorption and emission (λex=465 nm) spectra at a fixed concentration of thiourea-based compound 19 were recorded in CHCl3, toluene, acetonitrile (MeCN) and methanol (MeOH), yielding Stokes shifts between 160 nm and 230 nm, respectively. This positive solvatochromism is ascribed to the effective intramolecular charge transfer from the two electron-donating groups (thiourea and tertiary amine) to the electron-accepting benzodiazole as the solvent polarity increases (FIG. 1-4). […]
Normalized UV/vis absorption and emission spectra of guanidinium-based compound 25 at a fixed concentration were recorded in CHCl3 and MeCN. Sizable Stokes shifts of 180 nm and 210 nm were observed (FIGS. 8 and 9) as a result of the effective intramolecular charge transfer process established from the two electron-donating groups (guanidinium and tertiary amine) to the electron-accepting benzodiazole in solvents of different polarity.

[3] = Spectroscopic titration of compound 25 with TBA-OAc; assay type: binding; conditions: for change of UV/vis absorption band upon titration with TBA-OAc / change of fluorescence emission upon titration with TBA-OAc: c[25]=9×10^−6 M
Protocol: as §1
The bathochromic shift of the absorption band upon binding can be rationalized considering that the donor-acceptor interaction between the guanidinium and the benzoxadiazole is reinforced by a charge donation of the electron-rich acetate anion to the guanidinium.

[4] = Solubility in polar solvents; assay type: physicochemical; conditions: polar organic solvents and solvent/water mixtures

| Structure (SMILES) | interaction with oxoanions (e.g. ENOX-TBA) [1] | change of UV/vis absorption band upon titration with ENOX-TBA ([1]; MeCN, c[19]=2.2×10^−5 M) | absorption band position ([2]; in MeCN) [nm] | Stokes shift ([2]; in acetonitrile (MeCN)) | Stokes shift ([2]; in chloroform (CHCl3)) | Stokes shift ([2]; in methanol (MeOH)) [nm] | Stokes shift ([2]; in toluene) [nm] | absorption band position ([2]; CHCl3 and MeCN) [nm] | change of UV/vis absorption band upon titration with TBA-OAc ([3]; CHCl3) | change of fluorescence emission upon titration with TBA-OAc ([3]; CHCl3) | change of UV/vis absorption band upon titration with TBA-OAc ([3]; MeCN) | change of fluorescence emission upon titration with TBA-OAc ([3]; MeCN) | interaction with oxoanions (e.g. TBA-OAc) ([3]; non-polar and polar solvents) | solubility [4] |
| --- | --- | --- | --- | --- | --- | --- | --- | --- | --- | --- | --- | --- | --- | --- |
| C=C(C)C(=O)OCCN(C)c1ccc(NC(=S)NC(=O)c2ccccc2)c2nonc12 [Compound 19] | can interact | decrease and red shift | 462 | > 180 nm | > 170 nm | > 230 | > 160 | – | – | – | – | – | – | – |
| C=C(C)C(=O)OCCN(C)c1ccc(NC(=N)NC(=O)c2ccccc2)c2nonc12.Cl [Compound 25, benzamido((7-((2-(methacrycrykoyloxy)ethyl)(methyl)amino)benzo[c][1,2,5]oxadiazol-4-yl)amino)methaniminium chloride] | – | – | – | 210 nm and > 210 nm | 180 nm and > 180 nm | – | – | 450 | decrease and a red shift | red shift and decrease; also recorded: quenching and a red shift; also recorded: decrease and red shift | decrease and a red shift | red shift and decrease; also recorded: quenching and a red shift; also recorded: decrease and red shift | can interact | – |
| C=C(C)C(=O)OCCN(C)c1ccc(NC(=N)NC(=O)c2ccccc2)c2nonc12 [Compound 23, 2-((7-(3-benzoylguanidino)benzo[c][1,2,5]oxadiazol-4-yl)(methyl)amino)ethyl methacrylate] | – | – | – | – | – | – | – | – | – | – | – | – | – | soluble in polar organic solvents and polar organic solvent/water mixtures |
